Assay results from paper PMC5485989, “Role of Free Radicals and Biotransformation in Trichloronitrobenzene-Induced Nephrotoxicity In Vitro” (International Journal of Molecular Sciences, 2017).

Tests used:
[1] = system: isolated renal cortical cells (IRCC); experiment: Time and concentration cytotoxicity study, LDH release in IRCC; type: cell-based, male Fischer 344 rats
Description: To determine the comparative nephrotoxic potential of the four TCNBs in IRCC, a time and concentration response study was performed starting at 15 min and 0.5 or 1.0 mM and adjusting the times tested based on the results (Figure 2).

[2] = system: isolated renal cortical cells (IRCC); experiment: Protein carbonylation in IRCC (OxyBlot); type: cell-based, male Fischer 344 rats
Description: (§1) To determine if oxidative stress plays a role in 3,4,5-TCNB nephrotoxicity, experiments were conducted to determine the temporal aspects of free radical damage as evidenced by protein carbonylation (OxyBlot) and 4-hydroxynonenal (4-HNE) adduction.
(§2) Protein carbonylation was detected using OxyBlot™ Protein Oxidation (Millipore S7150; Temecula, CA, USA). Samples were prepared according to the manufacturer’s protocol and an equal amount of protein (25 µg) and volume were loaded in each lane of a 12.5% polyacrylamide gel and transferred to a nitrocellulose membrane (Whatman; 10-439-196; Dassel, Germany). The transfer was confirmed using a Memcode reversible protein stain kit (Pierce Biotechnology, Fisher Scientific) and the protein was used to normalize each lane. Membranes were incubated overnight at 4 °C with primary antibody (1:150) for OxyBlot. Goat anti-rabbit horse radish peroxidase (HRP, 1:300) was the secondary antibody. Protein with 4-hydroxynonenal (4-HNE) reduced Micahel adducts were prepared as described previously with the exception that 45 µg of protein was used for the gel. The membranes were developed using Amersham^TM ECLTM Western Blotting Reagents (GE Healthcare; Buckinghamshire, UK) and the results were viewed and analyzed using a Bio-Rad Chemidoc system with BioRad Chemidoc densitometry software (version 4.0.1, Catalog No. 170-9690, BioRad, Hercules, CA, USA).

[3] = system: renal cortical slices; conditions: 120 min incubations; cited from earlier work
[4] = system: isolated renal cortical cells (IRCC); experiment: 4-HNE adduction in IRCC (Western blot); type: cell-based, male Fischer 344 rats; conditions: 0.5 or 1.0 mM, 15 or 30 min
Description: as §1, §2

Compound: O=[N+]([O-])c1cc(Cl)c(Cl)c(Cl)c1 [3,4,5-TCNB]
- Cytotoxicity (LDH release), time and concentration response ([1]; 0.5 or 1.0 mM, 15-120 min, significant difference from DMSO control, p < 0.05): induced cytotoxicity at 30 and 60 min (0.5 and 1.0 mM) but not at 15 min
- Concentration at which cytotoxicity was evident ([1]; as early as 30 min): 500 µM
- Order of decreasing nephrotoxic potential ([1]; based on time of onset, lowest concentration required and magnitude of LDH release): most potent nephrotoxicant
- Protein carbonylation ([2]; 1.0 mM, 30 min, p = 0.017): slightly decreased
- Protein carbonylation ([2]; 0.5 or 1.0 mM, 15 or 30 min): not increased
- Lowest concentration inducing in vitro nephrotoxicity (increased LDH release and decreased pyruvate-stimulated gluconeogenesis) [3]: 0.5 mM
- 4-HNE levels [4]: not increased
